Assay results from ChEMBL document CHEMBL3627604, “Design of novel 3,6-diazabicyclo[3.1.1]heptane derivatives with potent and selective affinities for α4β2 neuronal nicotinic acetylcholine receptors” (Eur J Med Chem, 2015).
Active and inactive are the calls of the source. The calls are words filed in the database; no cut-off is given here.

Tests used:
[1] = Displacement of [3H]-Epibatidine from alpha4beta2* nAChR in Sprague-Dawley rat cortical membranes pre-incubated for 5 mins followed by overnight incubation by radioligand liquid scintillation counter analysis
[2] = Displacement of [3H]-Epibatidine from aplha6beta2* nAChR in Sprague-Dawley rat cortical membranes pre-incubated for 5 mins followed by overnight incubation by radioligand liquid scintillation counter analysis
[3] = target: Neuronal acetylcholine receptor; alpha4/beta2 (Rattus norvegicus, UniProt P09483+P12390); assay: Agonist activity at alpha4beta2 nAChR in Sprague-Dawley rat striatal slices assessed as increase in [3H]-Dopamine release after 5 mins by microbeta counting; type: protein-complex assay
Chain of Neuronal acetylcholine receptor; alpha4/beta2 (P09483 whole entry): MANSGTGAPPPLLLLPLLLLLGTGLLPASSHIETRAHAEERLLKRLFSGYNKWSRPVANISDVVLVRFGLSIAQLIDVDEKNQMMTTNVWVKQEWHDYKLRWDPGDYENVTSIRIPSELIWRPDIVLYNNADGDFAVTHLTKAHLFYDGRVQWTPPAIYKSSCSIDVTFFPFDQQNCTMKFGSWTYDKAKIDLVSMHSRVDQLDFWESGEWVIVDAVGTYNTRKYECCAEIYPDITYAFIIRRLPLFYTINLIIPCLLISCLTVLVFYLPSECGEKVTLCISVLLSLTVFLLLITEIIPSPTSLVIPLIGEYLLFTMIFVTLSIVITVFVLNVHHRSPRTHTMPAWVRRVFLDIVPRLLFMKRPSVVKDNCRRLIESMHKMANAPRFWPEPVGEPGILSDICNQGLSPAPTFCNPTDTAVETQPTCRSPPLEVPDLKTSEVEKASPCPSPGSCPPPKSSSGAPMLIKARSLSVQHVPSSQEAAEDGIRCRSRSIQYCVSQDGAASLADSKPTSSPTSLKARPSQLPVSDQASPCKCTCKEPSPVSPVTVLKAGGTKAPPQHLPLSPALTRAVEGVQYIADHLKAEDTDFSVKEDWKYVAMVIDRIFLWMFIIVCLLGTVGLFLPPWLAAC
Chain of Neuronal acetylcholine receptor; alpha4/beta2 (P12390 whole entry): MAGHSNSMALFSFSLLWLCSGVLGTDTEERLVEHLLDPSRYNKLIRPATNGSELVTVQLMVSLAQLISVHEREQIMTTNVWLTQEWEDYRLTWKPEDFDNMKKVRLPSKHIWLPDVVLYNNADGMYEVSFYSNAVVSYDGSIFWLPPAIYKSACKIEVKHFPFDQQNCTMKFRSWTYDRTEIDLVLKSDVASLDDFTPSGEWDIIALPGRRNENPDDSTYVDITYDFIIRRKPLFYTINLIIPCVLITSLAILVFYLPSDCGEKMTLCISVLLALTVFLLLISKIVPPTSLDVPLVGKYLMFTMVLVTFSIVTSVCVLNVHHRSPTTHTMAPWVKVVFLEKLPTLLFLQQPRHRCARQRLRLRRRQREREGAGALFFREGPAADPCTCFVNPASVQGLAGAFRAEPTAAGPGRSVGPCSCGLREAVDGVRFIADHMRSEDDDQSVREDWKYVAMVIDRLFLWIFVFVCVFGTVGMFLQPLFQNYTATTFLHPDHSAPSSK

[4] = target: Neuronal acetylcholine receptor; alpha3/beta4 (Homo sapiens, UniProt P30926+P32297); assay: Displacement of [3H]-Epibatidine from human aplha3beta4 nAChR expressed in HEK293 cells pre-incubated for 5 mins followed by overnight incubation by radioligand liquid scintillation counter analysis; type: cell-based
Chain of Neuronal acetylcholine receptor; alpha3/beta4 (P30926 whole entry): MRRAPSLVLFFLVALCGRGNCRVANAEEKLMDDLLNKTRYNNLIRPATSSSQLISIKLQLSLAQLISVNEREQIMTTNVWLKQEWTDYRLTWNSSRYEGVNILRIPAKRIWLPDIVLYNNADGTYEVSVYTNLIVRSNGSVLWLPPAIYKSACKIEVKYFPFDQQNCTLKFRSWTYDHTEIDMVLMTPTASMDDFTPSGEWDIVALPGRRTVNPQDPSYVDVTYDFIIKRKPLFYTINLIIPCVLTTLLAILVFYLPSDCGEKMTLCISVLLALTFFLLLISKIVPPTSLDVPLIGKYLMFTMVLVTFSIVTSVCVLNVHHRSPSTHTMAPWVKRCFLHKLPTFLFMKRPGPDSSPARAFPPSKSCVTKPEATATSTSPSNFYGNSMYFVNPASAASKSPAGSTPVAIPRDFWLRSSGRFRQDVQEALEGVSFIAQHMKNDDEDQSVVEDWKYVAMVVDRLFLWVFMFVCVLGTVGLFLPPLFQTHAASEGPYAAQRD
Chain of Neuronal acetylcholine receptor; alpha3/beta4 (P32297 whole entry): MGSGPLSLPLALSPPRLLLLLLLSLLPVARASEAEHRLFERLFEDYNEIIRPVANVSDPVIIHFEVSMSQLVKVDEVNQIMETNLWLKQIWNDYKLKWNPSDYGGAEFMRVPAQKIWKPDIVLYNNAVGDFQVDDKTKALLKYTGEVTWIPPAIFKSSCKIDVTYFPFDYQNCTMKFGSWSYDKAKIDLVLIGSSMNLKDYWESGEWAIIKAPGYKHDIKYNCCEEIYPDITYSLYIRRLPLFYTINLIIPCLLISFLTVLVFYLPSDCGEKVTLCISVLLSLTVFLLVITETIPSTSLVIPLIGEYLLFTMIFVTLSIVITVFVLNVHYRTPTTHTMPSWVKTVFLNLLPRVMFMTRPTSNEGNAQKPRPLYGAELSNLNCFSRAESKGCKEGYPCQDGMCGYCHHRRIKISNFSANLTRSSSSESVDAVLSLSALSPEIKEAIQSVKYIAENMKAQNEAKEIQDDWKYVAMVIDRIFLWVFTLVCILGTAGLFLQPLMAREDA

[5] = target: Neuronal acetylcholine receptor subunit alpha-7 (Rattus norvegicus, UniProt Q05941); assay: Displacement of [125I]alpha-Bungarotoxin from alpha7 nAChR in Sprague-Dawley rat hippocampal membranes pre-incubated for 5 mins followed by overnight incubation by radioligand liquid scintillation counter analysis
Chain of Neuronal acetylcholine receptor subunit alpha-7 (Q05941 whole entry): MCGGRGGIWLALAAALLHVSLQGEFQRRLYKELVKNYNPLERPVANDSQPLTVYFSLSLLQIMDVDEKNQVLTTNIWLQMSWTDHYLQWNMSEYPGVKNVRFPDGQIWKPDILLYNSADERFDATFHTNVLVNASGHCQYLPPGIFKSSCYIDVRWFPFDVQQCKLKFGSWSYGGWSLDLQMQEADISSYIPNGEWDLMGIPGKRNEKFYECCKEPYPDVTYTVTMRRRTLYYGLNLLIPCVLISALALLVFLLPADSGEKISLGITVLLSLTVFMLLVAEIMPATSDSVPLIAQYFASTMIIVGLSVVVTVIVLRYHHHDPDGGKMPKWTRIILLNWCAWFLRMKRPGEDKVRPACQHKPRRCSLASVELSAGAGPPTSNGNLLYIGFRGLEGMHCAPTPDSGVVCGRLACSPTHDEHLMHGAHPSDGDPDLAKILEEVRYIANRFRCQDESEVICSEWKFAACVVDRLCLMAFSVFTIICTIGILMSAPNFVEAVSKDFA

[6] = organism: Rattus norvegicus; assay: Selectivity ratio of Ki for alpha7 nAChR in Sprague-Dawley rat hippocampal membranes to Ki for alpha4beta2 nAChR in Sprague-Dawley rat cortical membranes
[7] = Antagonist activity against alpha6beta2* nAChR in Sprague-Dawley rat […] assessed as inhibition of nicotine-induced [3H]-dopamine release after 5 mins by microbeta counting
[8] = organism: Rattus norvegicus; assay: Agonist activity at aplha6beta2* nAChR in Sprague-Dawley rat striatal slices assessed as stinulation of [3H]-dopamine release in presence of 100 nM alpha-conotoxin MII after 5 mins by microbeta counting
[9] = target: Neuronal acetylcholine receptor; alpha4/beta2 (Rattus norvegicus) (UniProt P09483+P12390); assay: Agonist activity at alpha4beta2 nAChR in Sprague-Dawley rat striatal slices assessed as increase in [3H]-dopamine release after 5 mins by microbeta counting relative to nicotine; type: protein-complex assay
[10] = system: HEK293; assay: Selectivity ratio of Ki for aplha6beta2* nAChR in Sprague-Dawley rat cortical membranes to Ki for human aplha3beta4 nAChR expressed in HEK293 cells; type: cell-based
[11] = Binding affinity to alpha4beta2* nAChR in Sprague-Dawley rat cortical membranes after overnight incubation by radioligand liquid scintillation counter analysis

Row | Structure (SMILES) | Ki [1] [nM] | Ki [5] [nM] | Ratio Ki [6] | other results
1 | Fc1ccc(-c2cncc(N3CC4CC(C3)N4)c2)cc1 | 0.0248 | 110000 | 4.44e+06 | Ki [2]: 0.032 nM; EC50 [3]: Not Active; Ki [4]: 1.6 nM; IC50 [7]: 0.7 nM
2 | Clc1ccc(Cl)c(-c2cncc(N3CC4CC(C3)N4)c2)c1 | 0.0667 | 6000 | 90000 | –
3 | Clc1cncc(N2CC3CC(C2)N3)c1 | 0.00632 | 73 | 11600 | Ki [2]: 0.0112 nM; Activity [8]: inactive; EC50 ([3]; read-out: EC50): 1.4 nM; Ki [4]: 2.6 nM; Efficacy [9]: 111%; Ratio Ki [10]: 411
4 | Clc1ccc(-c2cncc(N3CC4CC(C3)N4)c2)cc1Cl | 0.0908 | 36000 | 397000 | –
5 | Brc1cncc(N2CC3CC(C2)N3)c1 | 0.00572 | 176 | 30800 | –
6 | Clc1ccc(-c2cncc(N3CC4CC(C3)N4)c2)cc1 | 0.0328 | 48000 | 1.46e+06 | –
7 | Clc1ccc(-c2cncc(N3CC4CC(C3)N4)c2)c(Cl)c1 | 0.0821 | 13000 | – | –
8 | Cc1ccc(-c2cncc(N3CC4CC(C3)N4)c2)cc1 | 0.0143 | 96000 | 6.69e+06 | –
9 | Clc1ccc([C@@H]2C[C@H]3CC[C@@H]2N3)cn1 [(+)-EPIBATIDINE] | – | – | – | Ki [11]: 0.043 nM
10 | O=[N+]([O-])c1ccc(-c2cncc(N3CC4CC(C3)N4)c2)cc1 | 0.0105 | 5000 | 478000 | –
11 | c1ccc(-c2cncc(N3CC4CC(C3)N4)c2)cc1 | 0.0112 | 17000 | 1.52e+06 | Ki [2]: 0.0112 nM; EC50 [3]: Not Active; Ki [4]: 6.1 nM; Ratio Ki [10]: 521; IC50 [7]: 5.87 nM
12 | COc1ccc(-c2cncc(N3CC4CC(C3)N4)c2)cc1 | 0.0121 | 6500 | 537000 | –
13 | Clc1ccc(N2CC3CC(C2)N3)cn1 | – | – | – | Ki [2]: 0.0048 nM; Activity [8]: inactive; EC50 ([3]; read-out: EC50): 1.16 nM; Ki [4]: 0.2 nM; Efficacy [9]: 120%
14 | Brc1ccc(-c2cncc(N3CC4CC(C3)N4)c2)cc1 | 0.151 | 34000 | 226000 | –
